The source of these data is article PMC3939009, “Thrombin inhibitory activity of some polyphenolic compounds” (Medicinal Chemistry Research, 2013).

A value given as a limit tells only on which side of the number the result lay.

One assay deals with human thrombin (Homo sapiens, UniProt P00734). Nature of the assay: Amidolytic activity of thrombin (hydrolysis of chromogenic substrate D-Phe-Pip-Arg-pNA).
Settings: not given
Format: biochemical. More on the design: Thrombin, also known as an active plasma coagulation factor II; purchased Sigma-Aldrich Chemical Co. (St. Louis, MO, USA) T7009; host or cells: purified from human plasma. The procedure:
All tested compounds were dissolved in 50 % DMSO to the initial concentration of 10 mM; other solutions of compounds were also prepared in 50 % DMSO (prepared in 50 mM TBS, pH 7.4). The final concentration of DMSO in thrombin samples was 5 %. To prepare thrombin control samples, the same volume of solvent (50 % DMSO prepared in 50 mM TBS, pH 7.4) was added as in the case of the compound volume and warmed for 10 min to 37 °C.
To each reaction well, 40 μl of 3 mM chromogenic substrate was added. To initiate the chromogenic reaction, 280 μl of control thrombin (without tested compounds) or thrombin after preincubation with a polyphenolic compound to every reaction well in the same moment was added. The absorbance value was monitored every 12 s for 10 min. The maximal velocity of the reaction (V max, Δm OD/min) for each absorbance curve was determined. IC50 value (parameter) for every polyphenolic compound from inhibition curves was estimated.
As for `O=C(O)c1cc(O)c(O)c(O)c1` [Gallic acid, gallic acid], the IC50 was more than 1000 µM.

On to `O=c1c(-c2ccc(O)cc2)coc2cc(O)cc(O)c12` [Genistein, genistein], for which the IC50 is more than 1000 µM.

Staying with this assay, now noted: at 375 μM substrate concentration; compounds 0.1–1,000 μM, preincubation 10 min 37 °C; read-out: IC50, amidolytic activity of human thrombin.
As to `O=C(O)/C=C/c1ccc(O)cc1` [Coumaric acid, coumaric acid], the IC50 was more than 1000 µM. As to `O=C1C[C@@H](c2ccc(O)cc2)Oc2cc(O)cc(O)c21` [Naringenin, naringenin], the IC50 was more than 1000 µM.

For `COc1cc(/C=C/C(=O)O)ccc1O` [Ferulic acid, ferulic acid], the IC50 is more than 1000 µM. As to `O=C(/C=C/c1ccc(O)c(O)c1)O[C@@H]1C[C@](O)(C(=O)O)C[C@@H](O)[C@H]1O` [Chlorogenic acid, chlorogenic acid], the IC50 was more than 1000 µM. Take `Oc1cc(O)c2c(c1)O[C@H](c1ccc(O)c(O)c1)[C@H](O)[C@H]2c1c(O)cc(O)c2c1O[C@H](c1ccc(O)c(O)c1)[C@H](O)C2` [Procyanidin B2, procyanidin B2]: the IC50 is more than 1000 µM.

For the compound `O=C(O)/C=C/c1ccc(O)c(O)c1` [Caffeic acid, caffeic acid], the IC50 is more than 1000 µM. Same read-out and setting: for `COc1ccc([C@@H]2CC(=O)c3c(O)cc(O)cc3O2)cc1O` [Hesperetin, hesperetin] the value was more than 1000 µM.

As to `C[C@@H]1O[C@@H](O[C@H]2[C@H](Oc3cc(O)c4c(c3)O[C@H](c3ccc(O)cc3)CC4=O)O[C@H](CO)[C@@H](O)[C@@H]2O)[C@H](O)[C@H](O)[C@H]1O` [Naringin, naringin], the IC50 was more than 1000 µM.

For the compound `O=C(O)Cc1ccc(O)cc1` [4-Hydroxyphenylacetic acid, 4-hydroxyphenylacetic acid], the IC50 is more than 1000 µM. As for `Oc1ccc(/C=C/c2cc(O)cc(O)c2)cc1` [Resveratrol, resveratrol], the IC50 was more than 1000 µM. Take `COc1ccc([C@@H]2CC(=O)c3c(O)cc(O[C@@H]4O[C@H](CO[C@@H]5O[C@@H](C)[C@H](O)[C@@H](O)[C@H]5O)[C@@H](O)[C@H](O)[C@H]4O)cc3O2)cc1O` [Hesperidin, hesperidin]: the IC50 was more than 1000 µM.

For `C[C@@H]1O[C@@H](OC[C@H]2O[C@@H](Oc3c(-c4ccc(O)c(O)c4)oc4cc(O)cc(O)c4c3=O)[C@H](O)[C@@H](O)[C@@H]2O)[C@H](O)[C@H](O)[C@H]1O` [Rutin, rutin], the IC50 was more than 1000 µM.

For orientation: IC50 means the concentration that gives 50% inhibition.
